In ChEMBL document CHEMBL1150472, “Synthesis and immunoregulating activity of vitamin D analogues bearing pregnane side chains” (Bioorg Med Chem Lett, 1992):

Test system: Rattus norvegicus
Experiment: Compound was tested in ratsdeficient in vitamin D at a dose of 125 ug/kg i.v.; NE denotes no effect was observed on bone calcium mobilization (BCM) and intestinal calcium absorption (ICA)
Format: functional, organism-based

With `C=C1/C(=C\C=C2/CCC[C@@]3(C)C2CC[C@@H]3C(C)=O)CC(O)C[C@@H]1O` (stereo partly specified) the Activity was “No effect”.
